Experiments:
Format in all cases: in vivo
corn (Zea mays) [1] = experiment: Test G Pre-Emergence Protocol; details: Zea mays, pre-emergence, 312 h, evaluated after 13 days; for plant injury at 15.625 g/ha: 15.625 g ai/ha; for plant injury at 15.625 g/ha / plant injury at 250 g/ha: read-out: Corn damage rating (100=total damage to plant; 0=no damage to plant); for plant injury at 62.5 g/ha: 62.5 g ai/ha, 100=total damage to plant, 0=no damage to plant, read-out: Corn damage rating; for plant injury at 250 g/ha: 250 g ai/ha
Outline: (§1)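 Under a 24/16° C day/night regime with 14 h light and 65% humidity, sown pots were sprayed after one day with compound (15.625, 62.5 or 250 g/ha; 50:50 acetone/water, 0.5% Tween 20). Damage was assessed visually 13 days later, 0 to 100.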

[2] = system: redroot pigweed (Amaranthus retroflexus); experiment: Test G Pre-Emergence Protocol; details: Amaranthus retroflexus, pre-emergence, 312 h, evaluated after 13 days; for pest or weed control at 15.625 g/ha: 15.625 g ai/ha; for pest or weed control at 15.625 g/ha / pest or weed control at 250 g/ha: read-out: Pigweed, Redroot damage rating (100=total damage to plant; 0=no damage to plant); for pest or weed control at 62.5 g/ha: 62.5 g ai/ha, 100=total damage to plant, 0=no damage to plant, read-out: Pigweed, Redroot damage rating; for pest or weed control at 250 g/ha: 250 g ai/ha
Outline: as §1

[3] = system: ivy-leaved morning glory (Ipomoea hederacea); experiment: Test G Pre-Emergence Protocol; details: Ipomoea, pre-emergence, 312 h, evaluated after 13 days; for pest or weed control at 15.625 g/ha: 15.625 g ai/ha; for pest or weed control at 15.625 g/ha / pest or weed control at 250 g/ha: read-out: Morningglory, Ivy-leaved damage rating (100=total damage to plant; 0=no damage to plant); for pest or weed control at 62.5 g/ha: 62.5 g ai/ha, 100=total damage to plant, 0=no damage to plant, read-out: Morningglory, Ivy-leaved damage rating; for pest or weed control at 250 g/ha: 250 g ai/ha
Outline: as §1

[4] = system: velvetleaf (Abutilon theophrasti); experiment: Test G Pre-Emergence Protocol; details: Abutilon theophrasti, pre-emergence, 312 h, evaluated after 13 days; for pest or weed control at 15.625 g/ha: 15.625 g ai/ha; for pest or weed control at 15.625 g/ha / pest or weed control at 250 g/ha: read-out: Velvetleaf damage rating (100=total damage to plant; 0=no damage to plant); for pest or weed control at 62.5 g/ha: 62.5 g ai/ha, 100=total damage to plant, 0=no damage to plant, read-out: Velvetleaf damage rating; for pest or weed control at 250 g/ha: 250 g ai/ha
Outline: as §1

[5] = system: giant foxtail (Setaria faberi); experiment: Test G Pre-Emergence Protocol; details: Setaria faberi, pre-emergence, 312 h, evaluated after 13 days; for pest or weed control at 15.625 g/ha: 15.625 g ai/ha; for pest or weed control at 15.625 g/ha / pest or weed control at 250 g/ha: read-out: Foxtail, Giant damage rating (100=total damage to plant; 0=no damage to plant); for pest or weed control at 62.5 g/ha: 62.5 g ai/ha, 100=total damage to plant, 0=no damage to plant, read-out: Foxtail, Giant damage rating; for pest or weed control at 250 g/ha: 250 g ai/ha
Outline: as §1

[6] = system: barnyardgrass (Echinochloa crus-galli); experiment: Test G Pre-Emergence Protocol; details: Echinochloa crus-galli, pre-emergence, 312 h, evaluated after 13 days; for pest or weed control at 15.625 g/ha: 15.625 g ai/ha; for pest or weed control at 15.625 g/ha / pest or weed control at 250 g/ha: read-out: Barnyardgrass damage rating (100=total damage to plant; 0=no damage to plant); for pest or weed control at 62.5 g/ha: 62.5 g ai/ha, 100=total damage to plant, 0=no damage to plant, read-out: Barnyardgrass damage rating; for pest or weed control at 250 g/ha: 250 g ai/ha
Outline: as §1

corn (Zea mays) [7] = experiment: Test G Post-Emergence Protocol; details: Zea mays, post-emergence, 312 h, read-out: Corn damage rating; for plant injury at 15.625 g/ha: 15.625 g ai/ha, evaluated after 13 days (100=total damage to plant; 0=no damage to plant); for plant injury at 62.5 g/ha: 62.5 g ai/ha; for plant injury at 62.5 g/ha / plant injury at 250 g/ha: evaluated after 13 days, 100=total damage to plant, 0=no damage to plant; for plant injury at 250 g/ha: 250 g ai/ha
Outline: (§2)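 Eight days post-sowing, plants received a spray of test compound (acetone/water 50:50, 0.5% Tween 20) at 15.625, 62.5 or 250 g/ha. Glasshouse regime thereafter: 24/16 °C, 14 h light, 65% humidity. Assessment after 13 days on a 0–100 damage scale.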

[8] = system: redroot pigweed (Amaranthus retroflexus); experiment: Test G Post-Emergence Protocol; details: Amaranthus retroflexus, post-emergence, 312 h, read-out: Pigweed, Redroot damage rating; for pest or weed control at 15.625 g/ha: 15.625 g ai/ha, evaluated after 13 days (100=total damage to plant; 0=no damage to plant); for pest or weed control at 62.5 g/ha: 62.5 g ai/ha; for pest or weed control at 62.5 g/ha / pest or weed control at 250 g/ha: evaluated after 13 days, 100=total damage to plant, 0=no damage to plant; for pest or weed control at 250 g/ha: 250 g ai/ha
Outline: as §2

[9] = system: ivy-leaved morning glory (Ipomoea hederacea); experiment: Test G Post-Emergence Protocol; details: Ipomoea, post-emergence, 312 h, read-out: Morningglory, Ivy-leaved damage rating; for pest or weed control at 15.625 g/ha: 15.625 g ai/ha, evaluated after 13 days (100=total damage to plant; 0=no damage to plant); for pest or weed control at 62.5 g/ha: 62.5 g ai/ha; for pest or weed control at 62.5 g/ha / pest or weed control at 250 g/ha: evaluated after 13 days, 100=total damage to plant, 0=no damage to plant; for pest or weed control at 250 g/ha: 250 g ai/ha
Outline: as §2

[10] = system: velvetleaf (Abutilon theophrasti); experiment: Test G Post-Emergence Protocol; details: Abutilon theophrasti, post-emergence, 312 h, read-out: Velvetleaf damage rating; for pest or weed control at 15.625 g/ha: 15.625 g ai/ha, evaluated after 13 days (100=total damage to plant; 0=no damage to plant); for pest or weed control at 62.5 g/ha: 62.5 g ai/ha; for pest or weed control at 62.5 g/ha / pest or weed control at 250 g/ha: evaluated after 13 days, 100=total damage to plant, 0=no damage to plant; for pest or weed control at 250 g/ha: 250 g ai/ha
Outline: as §2

[11] = system: giant foxtail (Setaria faberi); experiment: Test G Post-Emergence Protocol; details: Setaria faberi, post-emergence, 312 h, read-out: Foxtail, Giant damage rating; for pest or weed control at 15.625 g/ha: 15.625 g ai/ha, evaluated after 13 days (100=total damage to plant; 0=no damage to plant); for pest or weed control at 62.5 g/ha: 62.5 g ai/ha; for pest or weed control at 62.5 g/ha / pest or weed control at 250 g/ha: evaluated after 13 days, 100=total damage to plant, 0=no damage to plant; for pest or weed control at 250 g/ha: 250 g ai/ha
Outline: as §2

[12] = system: barnyardgrass (Echinochloa crus-galli); experiment: Test G Post-Emergence Protocol; details: Echinochloa crus-galli, post-emergence, 312 h, read-out: Barnyardgrass damage rating; for pest or weed control at 15.625 g/ha: 15.625 g ai/ha, evaluated after 13 days (100=total damage to plant; 0=no damage to plant); for pest or weed control at 62.5 g/ha: 62.5 g ai/ha; for pest or weed control at 62.5 g/ha / pest or weed control at 250 g/ha: evaluated after 13 days, 100=total damage to plant, 0=no damage to plant; for pest or weed control at 250 g/ha: 250 g ai/ha
Outline: as §2

COc1cc(OC(F)(F)F)cc(C2CN(C)C(=O)C2C(=O)Nc2cccc(F)c2F)c1 (stereo not drawn) [Compound 1697]
plant injury at 15.625 g/ha (corn (Zea mays) [1]): 0% | plant injury at 62.5 g/ha (corn (Zea mays) [1]): 40% | plant injury at 250 g/ha (corn (Zea mays) [1]): 50% | pest or weed control at 15.625 g/ha [2]: 0% | pest or weed control at 62.5 g/ha [2]: 0% | pest or weed control at 250 g/ha [2]: 20% | pest or weed control at 15.625 g/ha [3]: 0% | pest or weed control at 62.5 g/ha [3]: 0% | pest or weed control at 250 g/ha [3]: 0% | pest or weed control at 15.625 g/ha [4]: 0% | pest or weed control at 62.5 g/ha [4]: 0% | pest or weed control at 250 g/ha [4]: 20% | pest or weed control at 15.625 g/ha [5]: 70% | pest or weed control at 62.5 g/ha [5]: 80% | pest or weed control at 250 g/ha [5]: 80% | pest or weed control at 15.625 g/ha [6]: 40% | pest or weed control at 62.5 g/ha [6]: 70% | pest or weed control at 250 g/ha [6]: 80% | plant injury at 15.625 g/ha (corn (Zea mays) [7]): 10% | plant injury at 62.5 g/ha (corn (Zea mays) [7]): 80% | plant injury at 250 g/ha (corn (Zea mays) [7]): 80% | pest or weed control at 15.625 g/ha [8]: 20% | pest or weed control at 62.5 g/ha [8]: 60% | pest or weed control at 250 g/ha [8]: 70% | pest or weed control at 15.625 g/ha [9]: 30% | pest or weed control at 62.5 g/ha [9]: 60% | pest or weed control at 250 g/ha [9]: 60% | pest or weed control at 15.625 g/ha [10]: 0% | pest or weed control at 62.5 g/ha [10]: 30% | pest or weed control at 250 g/ha [10]: 30% | pest or weed control at 15.625 g/ha [11]: 80% | pest or weed control at 62.5 g/ha [11]: 80% | pest or weed control at 250 g/ha [11]: 80% | pest or weed control at 15.625 g/ha [12]: 60% | pest or weed control at 62.5 g/ha [12]: 70% | pest or weed control at 250 g/ha [12]: 90%

COc1cc(F)cc(C2CN(C)C(=O)C2C(=O)Nc2cccc(F)c2F)c1 (stereo not drawn) [Compound 1699]
plant injury at 15.625 g/ha (corn (Zea mays) [1]): 0% | plant injury at 62.5 g/ha (corn (Zea mays) [1]): 30% | plant injury at 250 g/ha (corn (Zea mays) [1]): 70% | pest or weed control at 15.625 g/ha [2]: 0% | pest or weed control at 62.5 g/ha [2]: 0% | pest or weed control at 250 g/ha [2]: 0% | pest or weed control at 15.625 g/ha [3]: 0% | pest or weed control at 62.5 g/ha [3]: 10% | pest or weed control at 250 g/ha [3]: 70% | pest or weed control at 15.625 g/ha [4]: 0% | pest or weed control at 62.5 g/ha [4]: 0% | pest or weed control at 250 g/ha [4]: 0% | pest or weed control at 15.625 g/ha [5]: 80% | pest or weed control at 62.5 g/ha [5]: 90% | pest or weed control at 250 g/ha [5]: 90% | pest or weed control at 15.625 g/ha [6]: 60% | pest or weed control at 62.5 g/ha [6]: 80% | pest or weed control at 250 g/ha [6]: 90% | plant injury at 15.625 g/ha (corn (Zea mays) [7]): 0% | plant injury at 62.5 g/ha (corn (Zea mays) [7]): 30% | plant injury at 250 g/ha (corn (Zea mays) [7]): 70% | pest or weed control at 15.625 g/ha [8]: 0% | pest or weed control at 62.5 g/ha [8]: 0% | pest or weed control at 250 g/ha [8]: 30% | pest or weed control at 15.625 g/ha [9]: 10% | pest or weed control at 62.5 g/ha [9]: 30% | pest or weed control at 250 g/ha [9]: 70% | pest or weed control at 15.625 g/ha [10]: 0% | pest or weed control at 62.5 g/ha [10]: 0% | pest or weed control at 250 g/ha [10]: 30% | pest or weed control at 15.625 g/ha [11]: 80% | pest or weed control at 62.5 g/ha [11]: 80% | pest or weed control at 250 g/ha [11]: 80% | pest or weed control at 15.625 g/ha [12]: 60% | pest or weed control at 62.5 g/ha [12]: 80% | pest or weed control at 250 g/ha [12]: 90%

Source: US12077503B2, “Substituted cyclic amides and their use as herbicides” (FMC CORPORATION, priority 2015, dated 2024)
